Assay results reported in patent US8263606B2 (Xenon Pharmaceuticals Inc., priority 2008, dated 2012).
pIC50: −log10 of the molar value.

Tests used:
sodium channel = experiment: Guanidine influx assay (14C-guanidine radiotracer flux, in vitro); assay type: cell-based, human or rat; conditions: guanidine influx assay using a known cell line that expresses a sodium channel; activity level class
Procedure, shortened: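 Sodium channel block is measured as reduced 14C-guanidine uptake in cells stably expressing human or rat channels, stimulated with aconitine. Potency is given as IC50 from a four-parameter curve.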

CYP3A4 = CYP3A4 (Homo sapiens, UniProt P08684); experiment: Cytochrome P450 (CYP450) Inhibition Assay, CYP3A4 (Vivid fluorescence, BOMCC substrate); conditions: human, P450 Baculosomes (recombinant CYP3A4), probe BOMCC (Vivid substrate)
Chain of CYP3A4 (P08684 whole entry): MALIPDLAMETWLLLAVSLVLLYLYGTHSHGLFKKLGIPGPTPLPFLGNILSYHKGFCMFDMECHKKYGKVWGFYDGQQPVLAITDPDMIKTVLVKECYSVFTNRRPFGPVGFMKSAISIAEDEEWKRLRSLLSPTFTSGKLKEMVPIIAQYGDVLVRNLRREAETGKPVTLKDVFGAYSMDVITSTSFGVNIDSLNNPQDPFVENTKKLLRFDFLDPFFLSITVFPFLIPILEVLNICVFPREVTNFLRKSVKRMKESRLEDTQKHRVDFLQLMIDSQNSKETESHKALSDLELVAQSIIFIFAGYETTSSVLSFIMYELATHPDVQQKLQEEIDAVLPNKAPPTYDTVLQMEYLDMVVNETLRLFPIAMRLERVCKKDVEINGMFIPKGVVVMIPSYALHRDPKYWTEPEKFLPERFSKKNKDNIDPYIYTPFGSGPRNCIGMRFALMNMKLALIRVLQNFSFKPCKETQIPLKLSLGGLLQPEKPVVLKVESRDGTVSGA

Compound | pIC50 (sodium channel) | inhibition at 10 µM (CYP3A4) | melting point
CN1CCOc2cc3c(cc21)C1(CO3)C(=O)N(C[C@H]2CCCO2)c2ccccc21.Cl (stereo partly drawn) [Example 2.29, 1-methyl-1′-[(2R)-tetrahydrofuran-2-ylmethyl]-2,3-dihydro-1H-spiro[furo[3,2-g][1,4]benzoxazine-8,3′-indol]-2′(1′H)-one hydrochloride] | 6.00 to 7.00 | < 50% | > 135 °C (dec.)
CN1CCOc2cc3c(cc21)OCC31C(=O)N(C[C@H]2CCCO2)c2ccccc21 (stereo partly drawn) [Example 2.30, 4-methyl-1′-[(2R)-tetrahydrofuran-2-ylmethyl]-3,4-dihydro-2H-spiro[furo[2,3-g][1,4]benzoxazine-8,3′-indol]-2′(1′H)-one] | 5.00 to 6.00 | > 50% | 138 to 140 °C
O=C1N(Cc2ncccc2C(F)(F)F)c2ccccc2C12COc1cc3c(cc12)OC(F)(F)O3 (stereo not drawn) [Example 2.36, 2,2-difluoro-1′-{[3-(trifluoromethyl)pyridin-2-yl]methyl}spiro[furo[2,3-f][1,3]benzodioxole-7,3′-indol]-2′(1′H)-one] | 5.00 to 6.00 | < 50% | 200 to 201 °C
COc1ccc(CN2C(=O)C3(COc4cc5c(cc43)CCO5)c3c2ccc2ncccc32)cc1 (stereo not drawn) [Example 2.38, 3′-(4-methoxybenzyl)-5,6-dihydrospiro[benzo[1,2-b:5,4-b′]difuran-3,1′-pyrrolo[3,2-f]quinolin]-2′(3′H)-one] | 6.00 to 7.00 | > 50% | 169 to 170 °C
COc1ccc(CN2C(=O)C3(COc4cc(O)c(C#N)cc43)c3ccccc32)cc1 (stereo not drawn) [Example 2.39, 6-hydroxy-1′-(4-methoxybenzyl)-2′-oxo-1′,2′-dihydrospiro[1-benzofuran-3,3′-indole]-5-carbonitrile] | 5.00 to 6.00 | > 50% | 112 to 114 °C
COc1ccc(CN2C(=O)C3(COc4cc(F)c(C#N)cc43)c3ccccc32)cc1 (stereo not drawn) [Example 2.40, 6-fluoro-1′-(4-methoxybenzyl)-2′-oxo-1′,2′-dihydrospiro[1-benzofuran-3,3′-indole]-5-carbonitrile] | 5.00 to 6.00 | > 50% | 142 to 143 °C
COc1ccc(CN2C(=O)C3(COc4cc5c(C)noc5cc43)c3ccccc32)cc1 (stereo not drawn) [Example 2.41, 1′-(4-methoxybenzyl)-3-methylspiro[furo[2,3-f][1,2]benzisoxazole-7,3′-indol]-2′(1′H)-one] | 5.00 to 6.00 | > 50% | 183 to 184 °C
O=C1N(c2ccc(F)cc2)c2ccccc2C12COc1cc3c(cc12)OCCO3 (stereo not drawn) [Example 2.45, 1′-(4-fluorophenyl)-2,3-dihydrospiro[furo[2,3-g][1,4]benzodioxine-8,3′-indol]-2′(1′H)-one] | 7.00 to 9.00 | < 50% | 210 to 212 °C
O=C1N(Cc2ccccn2)c2ccc(Br)cc2C12COc1cc3c(cc12)OCCO3 (stereo not drawn) [Example 2.49, 5′-bromo-1′-(pyridin-2-ylmethyl)-2,3-dihydrospiro[furo[2,3-g][1,4]-benzodioxine-8,3′-indol]-2′(1′H)-one] | 7.00 to 9.00 | > 50% | > 250 °C
N#Cc1ccc2c(c1)C1(COc3cc4c(cc31)OCCO4)C(=O)N2Cc1ccccn1 (stereo not drawn) [Example 2.50, 2′-oxo-1′-(pyridin-2-ylmethyl)-1′,2,2′,3-tetrahydrospiro[furo[2,3-g][1,4]benzodioxine-8,3′-indole]-5′-carbonitrile] | 7.00 to 9.00 | < 50% | 198 to 199 °C
O=C1N(C(c2ccccc2)c2ccccc2)c2ccccc2C12COc1cc(F)c(F)cc12 (stereo not drawn) [Example 2.61, 1′-(diphenylmethyl)-5,6-difluorospiro[1-benzofuran-3,3′-indol]-2′(1′H)-one] | ≤ 5.00 | < 50% | 213 to 216 °C
COc1ccc2c(c1OC)C1(COc3cc4c(cc31)OCCO4)C(=O)N2Cc1ccc(C(F)(F)F)o1 (stereo not drawn) [Example 2.63, 4′,5′-dimethoxy-1′-{[5-(trifluoromethyl)furan-2-yl]methyl}-2,3-dihydrospiro[furo[2,3-g][1,4]benzodioxine-8,3′-indol]-2′(1′H)-one] | 6.00 to 7.00 | > 50% | 62 to 65 °C
COCCOCCN1C(=O)C2(COc3cc4c(cc32)OCCO4)c2c(OC)ccc(OC)c21 (stereo not drawn) [Example 2.64, 4′,7′-dimethoxy-1′-[2-(2-methoxyethoxy)ethyl]-2,3-dihydrospiro[furo[2,3-g][1,4]benzodioxine-8,3′-indol]-2′(1′H)-one] | 6.00 to 7.00 | < 50% | 109 to 110 °C

Next, values leading:

pIC50 (sodium channel) | inhibition at 10 µM (CYP3A4) | melting point | Compound
7.00 to 9.00 | > 50% | > 200 °C | O=C1Nc2cccc(Cl)c2C12COc1cc3c(cc12)CCO3 (stereo not drawn) [Example 3.1, 4′-chloro-5,6-dihydrospiro[benzo[1,2-b:5,4-b′]difuran-3,3′-indol]-2′(1′H)-one]
6.00 to 7.00 | > 50% | 206 to 207 °C | Cc1cc2c(cc1C)C1(CO2)C(=O)Nc2ccccc21 (stereo not drawn) [Example 3.3, 5,6-dimethylspiro[1-benzofuran-3,3′-indol]-2′(1′H)-one]
5.00 to 6.00 | > 50% | 257 to 259 °C | O=C1Nc2ccc(F)cc2C12COc1cc3c(cc12)CCO3 (stereo not drawn) [Example 3.4, 5′-fluoro-5,6-dihydrospiro[benzo[1,2-b:5,4-b′]difuran-3,3′-indol]-2′(1′H)-one]
5.00 to 6.00 | > 50% | 249 to 251 °C | O=C1Nc2cc(F)ccc2C12COc1cc3c(cc12)CCO3 (stereo not drawn) [Example 3.5, 6′-fluoro-5,6-dihydrospiro[benzo[1,2-b:5,4-b′]difuran-3,3′-indol]-2′(1′H)-one]
6.00 to 7.00 | < 50% | 226 to 227 °C | Cc1noc2cc3c(cc12)C1(CO3)C(=O)Nc2ccccc21 (stereo not drawn) [Example 3.6, 3-methylspiro[furo[3,2-f][1,2]benzisoxazole-5,3′-indol]-2′(1′H)-one]
5.00 to 6.00 | < 50% | 222 to 225 °C | COc1cc2c(cc1F)C1(CO2)C(=O)Nc2ccccc21 (stereo not drawn) [Example 3.7, 5-fluoro-6-methoxyspiro[1-benzofuran-3,3′-indol]-2′(1′H)-one]
7.00 to 9.00 | < 50% | > 250 °C | O=C1Nc2ccccc2C12COc1cc3c(cc12)OCCO3 (stereo not drawn) [Example 3.10, 2,3-dihydrospiro[furo[2,3-g][1,4]benzodioxine-8,3′-indol]-2′(1′H)-one]
5.00 to 6.00 | < 50% | 235 to 236 °C | O=C1Nc2ccccc2C12COc1cc3c(cc12)OCCCO3 (stereo not drawn) [Example 3.11, 3,4-dihydro-2H-spiro[furo[2,3-h][1,5]benzodioxepine-9,3′-indol]-2′(1′H)-one]
≤ 5.00 | < 50% | 242 to 244 °C | Cc1nc2cc3c(cc2o1)C1(CO3)C(=O)Nc2ccccc21 (stereo not drawn) [Example 3.12, 2-methylspiro[furo[2,3-f][1,3]benzoxazole-7,3′-indol]-2′(1′H)-one]
5.00 to 6.00 | < 50% | > 250 °C | Cn1c(=O)oc2cc3c(cc21)OCC31C(=O)Nc2ccccc21 (stereo not drawn) [Example 3.13, 3-methylspiro[furo[2,3-f][1,3]benzoxazole-7,3′-indole]-2,2′(1′H,3H)-dione]
5.00 to 6.00 | < 50% | > 250 °C | Cn1c(=O)oc2cc3c(cc21)C1(CO3)C(=O)Nc2ccccc21 (stereo not drawn) [Example 3.14, 1-methylspiro[furo[3,2-f][1,3]benzoxazole-7,3′-indole]-2,2′(1′H,1′H)-dione]
6.00 to 7.00 | < 50% | > 250 °C | O=C1Nc2c(Cl)cccc2C12COc1cc3c(cc12)CCO3 (stereo not drawn) [Example 3.15, 7′-chloro-5,6-dihydrospiro[benzo[1,2-b:5,4-b′]difuran-3,3′-indol]-2′(1′H)-one]
6.00 to 7.00 | < 50% | > 250 °C | O=C1Nc2c(F)cccc2C12COc1cc3c(cc12)CCO3 (stereo not drawn) [Example 3.16, 7′-fluoro-5,6-dihydrospiro[benzo[1,2-b:5,4-b′]difuran-3,3′-indol]-2′(1′H)-one]
6.00 to 7.00 | > 50% | > 250 °C | Cc1ccc(F)c2c1NC(=O)C21COc2cc3c(cc21)CCO3 (stereo not drawn) [Example 3.17, 4′-fluoro-7′-methyl-5,6-dihydrospiro[benzo[1,2-b:5,4-b′]difuran-3,3′-indol]-2′(1′H)-one]
6.00 to 7.00 | < 50% | 216 to 220 °C | O=C1Nc2ccccc2C12COc1cc3c(cc12)CCCO3 (stereo not drawn) [Example 3.21, 6,7-dihydro-5H-spiro[furo[3,2-g]chromene-3,3′-indol]-2′(1′H)-one]
5.00 to 6.00 | < 50% | > 250 °C | CN1C(=O)COc2cc3c(cc21)C1(CO3)C(=O)Nc2ccccc21 (stereo not drawn) [Example 3.22, 1-methyl-1H-spiro[furo[3,2-g][1,4]benzoxazine-8,3′-indole]-2,2′(1′H,3H)-dione]
5.00 to 6.00 | < 50% | > 250 °C | CN1C(=O)COc2cc3c(cc21)OCC31C(=O)Nc2ccccc21 (stereo not drawn) [Example 3.23, 4-methyl-4,7-dihydrospiro[benzofuro[5,6-b][1,4]oxazine-8,3′-indoline]-2′,3(2H)-dione]
5.00 to 6.00 | < 50% | > 250 °C | COc1cc2c(cc1C)[C@@]1(CO2)C(=O)Nc2ccccc21 [Example 3.25, (3S)-6-methoxy-5-methylspiro[1-benzofuran-3,3′-indol]-2′(1′H)-one]
